Patent US20050075501A1, “Ammonium compounds bearing and electrophilic fluorine, reagent containing same, method using same and synthesis method for obtaining them” (priority 2000, published 2005)

Experiment: Solubility of N-fluorocinchonidinium tetrafluoroborate in solvents
Assay type: physicochemical
Conditions: acetonitrile
Description: ^19F NMR (282 MHz, CD3CN/CCl3F): 37.71 (s, 1F); −154.52 (s, 1F); −154.60 (s, 3F). (CD3CN/TFA): 118.35 (s, 1F); −74.12 (s, 1F); −74.17 (s, 3F). FTIR: (ν N—F) 927 cm^−1 Melting point: 189+/−2° C. […] MS (FAB^+, glycerol) 313 (cation^+, 18%) 295 (cation-H2O, 100) . TLC: acetone/heptane: 9/1; Rf=0.3.

SMILES: C=CC1C[N+]2(F)CCC1CC2C(O)c1ccnc2ccccc12.F[B-](F)(F)F (stereo not shown) [N-fluorocinchonidinium Tetrafluoroborate]
- Solubility: ca. 200 mg/ml
